Publication PMC6940514 (Angewandte Chemie (International ed. in English), 2019)

Tests used:
S. pneumoniae = experiment: Antibacterial activity; format: cell-based; settings: Streptococcus pneumoniae
S. pyogenes = experiment: Antibacterial activity; format: cell-based; settings: Streptococcus pyogenes
Gram-negative bacteria = settings: general statement, no reference given; cited from earlier work

C=C(NC(=O)C(=C)NC(=O)c1csc(C2=N[C@@H]3c4csc(n4)[C@H]4NC(=O)c5csc(n5)[C@H]([C@](C)(O)[C@@H](C)O)NC(=O)[C@H]5CSC(=N5)/C(=C/C)NC(=O)[C@H]([C@@H](C)O)NC(=O)c5csc(n5)[C@]3(CC2)NC(=O)[C@H](C)NC(=O)C(=C)NC(=O)[C@H](C)NC(=O)[C@H]([C@@H](C)CC)N[C@@H]2C=Cc3c([C@H](C)O)cc(nc3[C@H]2O)C(=O)O[C@@H]4C)n1)C(N)=O [Compound 1, Thiostrepton]
MIC (S. pneumoniae): < 1 ng/mL
MIC (S. pyogenes): < 1 ng/mL
activity against Gram-negative bacteria (Gram-negative bacteria): inactive
